Measured values as given in US5047502A, “Gastrin releasing peptide antagonist” (Merck and Co., Inc., priority 1989, dated 1991).
Where two headings read alike, the source gives them in different places. Residues, ends and D or L forms follow the SMILES beside them. No end group written: not given here. *: point of attachment. OBn = c1ccc(CO*)cc1; X1 = CCCCCO*; OPr = CCCO*; X2 = CCCCO*

Tests used:
GRP receptor = target: T1, GRP receptor (Mus musculus, UniProt P21729); assay: Binding inhibition of radiolabelled GRP (Procedure A); conditions: for EC50: [Antagonist] reducing specific binding of 7 nM [3H-Phe15] GRP 15-27 to 50%, Swiss 3T3 cell monolayers
T1 construct: Swiss 3T3 fibroblasts were used in these tests as the source of GRP receptor; endogenous in cells; host or cells: Swiss 3T3 fibroblasts (from Dr. K. Brown, Institute of Animal Physiology, Cambridge, U.K.)
T1 sequence (P21729 whole entry): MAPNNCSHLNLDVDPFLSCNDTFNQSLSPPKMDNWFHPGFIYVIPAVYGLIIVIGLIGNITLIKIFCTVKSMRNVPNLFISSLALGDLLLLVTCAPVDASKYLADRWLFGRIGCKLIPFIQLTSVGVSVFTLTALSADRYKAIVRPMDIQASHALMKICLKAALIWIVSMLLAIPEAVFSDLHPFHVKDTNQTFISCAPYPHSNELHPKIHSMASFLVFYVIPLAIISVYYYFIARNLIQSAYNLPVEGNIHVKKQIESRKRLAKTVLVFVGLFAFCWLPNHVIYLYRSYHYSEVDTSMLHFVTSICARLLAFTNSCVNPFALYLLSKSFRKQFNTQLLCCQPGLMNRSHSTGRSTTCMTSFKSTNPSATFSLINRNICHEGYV
Protocol: Swiss 3T3 cells, obtained from Dr. K. Brown (Institute of Animal Physiology, Cambridge, U.K.). The cells were grown to confluency in Costar 12-well plates containing DMEM (Gibco) supplemented with 10% fetal bovine serum, 2 mM glutamine and 1% penicillin-streptomycin. The cells were washed twice with binding buffer [1:1 DMEM:Waymouths MB752/1 medium, plus 1 mg/ml BSA (Fraction V, Calbiochem)]. The antagonist was dissolved in 10 mM HCl, and diluted to the appropriate concentration in binding buffer. The antagonist was then added to the cells, followed by radiolabelled GRP at a final concentration of 7 nM. After 30 minutes incubation at 37° C., the supernatant liquid was removed and the cell monolayer rinsed four times with washing buffer (150 mM NaCl, 20 mM Na2 HPO4, 5 mM KCl, 1.8 mM KH2 PO4, 1 mg/ml BSA). The cells were then lysed with 1 ml/well of lysis buffer (1% Triton X-100, 0.1% BSA), and the solution was aspirated into scintillation vials for counting. Each data point was collected in triplicate.
Binding Inhibition: [Antagonist] which reduces the specific binding of 7 nM [^3 H-Phe^15 ] GRP 15-27 to 50% of the level observed in the absence of antagonist. Assay performed in Swiss 3T3 cell monolayers.

Swiss 3T3 cells [1] = assay type: cell-based; conditions: for EC50: 3 h
Protocol: Swiss 3T3 cells were grown in monolayer culture in 24-well plates (Costar) in serum-free DMEM for 48 hours, at which time the GRP or a GRP homologue, the antagonist and 23 nM ^3 H-thymidine were added. […] The cells were harvested with a Skatron filter apparatus, and the filters counted in a scintillation counter.
Mitogenic Inhibition: [Antagonist] which reduces the uptake of ^3 H-thymidine caused by 7 nM [Nle^27 ] GRP 15-27 to 50% of the level observed in the absence of antagonist. […] GRP 1-27 as the mitogen. Assay performed on Swiss 3T3 monolayers.

Swiss 3T3 cells [2] = assay type: cell-based; conditions: for EC50: 3 h; remark: listed apart in the source
Protocol: Swiss 3T3 cells were grown in monolayer culture in 24-well plates (Costar) in serum-free DMEM for 48 hours, at which time the peptide being tested and 23 nM ^3 H-thymidine were added. […] The cells were harvested with a Skatron filter apparatus, and the filters counted in a scintillation counter. Mitogenic Stimulation: [Agonist] which stimulates uptake of ^3 H-thymidine to 50% of the maximal level caused by [Nle^27 ] GRP 15-27. Assay performed on Swiss 3T3 monolayers.

H345 SCLC cells = assay: Stimulation of Ca2+ release in SCLC (Procedure D); assay type: cell-based; conditions: 100 nM GRP, read-out: [Ca2+]i in SCLC IC50
Protocol: Following the procedure of Heikkila et al., J. Biol. Chem. 262 16456 (1987), approximately 1×10^8 H345 SCLC cells, maintained in RPMI-1640 (Ro) medium supplemented with selenium, insulin, and transferrin, were harvested by settling and washing with Ro. They were then resuspended in 2 ml Ro, to which 1.2 nmol Fura-2/AM per 10^6 cells was added. After a 15 minute incubation at 37° C., the cells were diluted to 10 ml with Ro and incubated for 1 hour at 37° C. The cells were then centrifuged and resuspended in HEPES-saline (140 mM NaCl, 5 mM KCl, 5 mM glucose, 1 mM CaCl2, 1 mM MgCl2, 20 mM HEPES, pH 7.4) at a density of 2.5-5×10^6 cells/ml. The cells were kept on ice for up to 2 hours before being used. Ca^2+ measurements were performed at 37° C. in an Aminco SPF-500 fluorimeter. The excitation wavelength was 340 nm, the emission wavelength 510 nm. Two ml of cell suspension was periodically resuspended in a 3 ml plastic cuvette. They were equilibrated at 37° C. for at least 5 minutes before data was collected. After a stable baseline was established, a mixture of the compound of interest an 100 nM GRP was added, and data was collected for approximately 5 minutes. At that time, a challenge dose of GRP was added, and data was collected for an additional 5 minutes. […] Baseline fluorescence was measured after the subsequent addition of 40 μl 2M Tris (pH 9.5) and 64 μl 0.2M EGTA.

[3] = assays of example 2 repeated, unit inferred

CCCOC(=O)[C@H](CC(C)C)NC(=O)[C@H](Cc1c[nH]cn1)NC(=O)CNC(=O)[C@@H](NC(=O)[C@H](C)NC(=O)[C@H](Cc1c[nH]c2ccccc12)NC(=O)[C@H](Cc1c[nH]cn1)NC(C)=O)C(C)C [AcHisTrpAlaValGlyHisLeu--O(CH2)2 CH3] (Ac-HWAVGHL-OPr)
IC50 (GRP receptor; [3]): 3.5 nM

CCCCOC(=O)[C@H](CC(C)C)NC(=O)[C@H](Cc1c[nH]cn1)NC(=O)CNC(=O)[C@@H](NC(=O)[C@H](C)NC(=O)[C@H](Cc1c[nH]c2ccccc12)NC(=O)[C@H](Cc1c[nH]cn1)NC(C)=O)C(C)C [AcHisTrpAlaValGlyHisLeu--O(CH2)3 CH3] (Ac-HWAVGHL-X2)
IC50 (GRP receptor; [3]): 6.8 nM

CCCCCOC(=O)[C@H](CC(C)C)NC(=O)[C@H](Cc1c[nH]cn1)NC(=O)CNC(=O)[C@@H](NC(=O)[C@H](C)NC(=O)[C@H](Cc1c[nH]c2ccccc12)NC(=O)[C@H](Cc1c[nH]cn1)NC(C)=O)C(C)C [AcHisTrpAlaValGlyHisLeu--O(CH2)4 CH3] (Ac-HWAVGHL-X1)
IC50 (GRP receptor; [3]): 12.4 nM

CC(=O)N[C@@H](Cc1c[nH]cn1)C(=O)N[C@@H](Cc1c[nH]c2ccccc12)C(=O)N[C@@H](C)C(=O)N[C@H](C(=O)NCC(=O)N[C@@H](Cc1c[nH]cn1)C(=O)N[C@@H](CC(C)C)C(=O)OCc1ccccc1)C(C)C [AcHisTrpAlaValGlyHisLeu--OCH2 C6 H5] (Ac-HWAVGHL-OBn)
IC50 (GRP receptor; [3]): 5.4 nM

COC(=O)[C@H](CC(C)C)NC(=O)[C@H](Cc1c[nH]cn1)NC(=O)CNC(=O)[C@@H](NC(=O)[C@H](C)NC(=O)[C@H](Cc1c[nH]c2ccccc12)NC(=O)[C@H](Cc1c[nH]cn1)NC(C)=O)C(C)C [AcHisTrpAlaValGlyHisLeu--OCH3] (Ac-HWAVGHL-OMe)
IC50 (GRP receptor; [3]): 7.7 nM

CCOC(=O)[C@H](CC(C)C)NC(=O)[C@H](Cc1c[nH]cn1)NC(=O)CNC(=O)[C@@H](NC(=O)[C@H](C)NC(=O)[C@H](Cc1c[nH]c2ccccc12)NC(=O)[C@H](Cc1c[nH]cn1)NC(C)=O)C(C)C [N-acetyl His Trp Ala Val Gly His Leu-OCH2 CH3] (Ac-HWAVGHL-OEt)
IC50 (Swiss 3T3 cells [1]; average of 2 experiments, read-out: Mitogenic Inhibition IC50): 15 nM
Mitogenic Stimulation (Swiss 3T3 cells [2]; at concentrations up to 30 μM): none
IC50 (H345 SCLC cells): 400 nM
IC50 (GRP receptor; average of 6 experiments): 3.9 nM

Ac-HWAVGHL-NH2 [Ac--His--Trp--Ala--Val--Gly--His--LeuNH2]
EC50 (Swiss 3T3 cells [1]): 3000 nM
EC50 (Swiss 3T3 cells [2]): > 100000 nM
EC50 (GRP receptor): 2000 nM

HWAVGHL-NH2 [His--Trp--Ala--Val--Gly--His--LeuNH2]
EC50 (Swiss 3T3 cells [1]): 50000 nM
EC50 (Swiss 3T3 cells [2]): > 100000 nM
EC50 (GRP receptor): 20000 nM
